Like-named read-outs stand apart in the source and are kept apart here.
Columns and labels:
[1] = format: physicochemical
Method: The peptide was difficult to dissolve and it was attempted to dissolve the crude fsp5 (SEQ ID NO: 19) (˜150 mg) in approximately 4 ml 50% MeCN in water under gentle heating.
Another batch of fsp5 (SEQ ID NO: 19) was prepared, dissolved in neat DMSO under gentle heating and purified by preparative HPLC. Again, only very small amounts of purified fsp5 (SEQ ID NO: 19) were obtained.

[2] = format: physicochemical; remark: listed apart in the source
Method: A batch of fsp5 (SEQ ID NO: 19) was prepared by solid phase peptide synthesis (SPPS) by using FMOC chemistry and Prelude synthesizer (Gyros Protein Technologies Inc., USA). The crude peptide was analysed by UPLC and MS. […] UPLC system: Column; Acquity UPLC BEH C18 […], detection; PDA 210-500 nm, solvent A); 0.1% TFA in water, solvent B; 0.1% TFA in MeCN, gradient: 20-70% B (2-10 minutes, linear).
When the purity of the small amount of purified fsp5 (SEQ ID NO: 19) was reassessed by UPLC after lyophilisation, the purity had dropped from around 90% to below 50% as shown in FIG. 4.

[3] = test system: T cells (PBMC) from healthy donors; assay: T-cell proliferation (3H-thymidine, SI) after in vitro stimulation of PBMC with cocktail fsp2+fsp4 (Example 4); format: cell-based, human; set-up: T cell proliferation (stimulation index, SI): immunogenicity: dose or concentration left out as unconfirmed
Method: Fresh buffy coats from four healthy donors were obtained from a blood bank.
Peripheral blood mononuclear cells (PBMC) isolated from fresh buffy coats from four healthy donors were counted and suspended in DC medium to 15*10^6 cells/ml, and subsequently diluted with DC-medium to 4*10^6 cells/ml (Table 6).
Four 24-well plates were used for each donor, with 4*10^6 cells per well (each well has a volume of 1 ml).
Peptide cocktail: Solution of peptides fsp2+fsp4, containing […] of each peptide. 40 μl peptide solution was added to each well.
The plates were incubated in a cell incubator for 14 days (37° C., 5% CO2). IL-2 and IL-7 were added on day 3. The cells were inspected daily.
Test peptides: fsp2+fsp4 (SEQ ID NOs: 21 and 23), fsp1 (SEQ ID NO: 20), fsp2 (SEQ ID NO: 21), fsp3 (SEQ ID NO: 22), fsp4 (SEQ ID NO: 23), fsp5 (SEQ ID NO: 19).
Negative controls: T cells, T cells+APC (without addition of test peptides)
Cells and reagents were added to plate wells (in triplicate) as described in Tables 8 and 9 below. The total volume added to each well was 0.20 ml. • T cells (PBMC): 50 000 cells/well (0.25*10^6 cells/ml) • APC: Irradiated (30 Gy, 8 minutes) autologous feeder cells: 50 000 cells/well • (fspx): 0.2 nmol peptide/well (each peptide), concentration: […] peptide. (fsp was dissolved in DMSO before dilution to correct concentration)
The plates were incubated in a cell incubator for 48 hours (37° C., 5% CO2).
After incubation for 48 hours, 20 μl 3H-tThymidine solution (5 Ci/ml) was added to each well and the plates were incubated for approximately 17 hours (37° C., 5% CO2).
After 17 hours the cells were harvested (Unifilters) and dried on the filters at 45° C. until completely dry. After covering the bottom of the Unifilters with adhesive covers (delivered with the Unifilters) 25 μl micro scintillation liquid was added to each well, the plate was covered with TopSeal and 3H-Thymidine uptake was measured as counts per minute (CPM) using a microplate scintillation counter.
The T cell proliferation results after the first round of in vitro stimulation with the cocktail of fsp2 and fsp4 peptides are presented as stimulation index (SI) in FIG. 10. SI=mean CPM (triplicates) of (T cells+APC+test peptide(s)) divided by mean CPM (triplicates) of (T cells+APC). SI>1 indicates an increase in T-cell proliferation and SI 2 is a clear sign of immunogenicity.
PBMCs harvested after the first in vitro stimulation were re-stimulated in vitro according to the protocol set out above, with 2×10^6 cells per well. T-cell proliferation was tested according to the protocol set out above.

T cells = details: cited from earlier work
[4] = test system: colorectal cancer cell line HCT116; details: Linnebacher et al.; HCT116 carries the corresponding frameshift mutation; cited from earlier work

Sequence | effect of adding water to DMSO solution [1] | solubility [1] | purity by UPLC after lyophilisation (stability) [2] | relative immunogenicity ([3]; FIGS. 10 and 11, compared with fsp3 and fsp4) | T cell proliferation (stimulation index, SI): immunogenicity ([3]; first and second round of in vitro stimulation with cocktail of fsp2 and fsp4, four healthy donors, FIGS. 10-12) | immunogenicity (T cells; EP1078000 FIG. 14, four rounds of stimulation of the T-cells) | immunogenicity (T cells; Linnebacher et al., FIG. 1) | activating specific CTLs (T cells; Linnebacher et al., HLA-A2.1 restricted, in vitro) | immunogenicity (T cells; Saeterdal et al., 2001, Cancer Immunol Immunother) | generation of CTL line and CTL clones (T cells; Saeterdal et al., Cancer Immunol Immunother 2001) | lysis of colorectal cancer cell line HCT116 [4]
KCIMKEKKSLVRLSSCVPVALMSAMTTSSSQKN (listed as Homo sapiens) [fsp5, optimised consensus peptide of TGFβR2] | precipitation of the peptide | no clear solution could be obtained | below 50% | more immunogenic than peptides which do not comprise amino acids from the wild-type sequence of TGFβR2 | stimulated T-cells induced from PMBCs | – | – | – | – | – | –
RLSSCVPVA (listed as Homo sapiens) [p573, prior art peptide of mutTGFβR2] | – | – | – | – | – | not immunogenic | immunogenic | capable of activating specific CTLs | immunogenic | able to generate a CTL line and several CTL clones | able to lyse the colorectal cancer cell line HCT116

Source: US20230203130A1, “A PEPTIDE COCKTAIL” (Hubro Therapeutics AS, priority 2020, published 2023)
